Test results taken from PubChem BioAssay (NCI).
Several values for one entry are separate records, joined by “and”; a condition that tells them apart may be missing. Equal values may be shown once.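 Compound exposure: 48 hours, 5 concentrations, 96-well plates. GI50: concentration for 50% inhibition of growth. TGI is the concentration that stops growth completely.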

How the values were obtained:
Experiment in all cases: NCI tumour cell line growth inhibition, 48 h
DMS 114 small cell lung = tested on: DMS 114 small cell lung
DMS 273 small cell lung = tested on: DMS 273 small cell lung
HOP-18 NSCLC = tested on: HOP-18 NSCLC
KM20L2 colon = tested on: KM20L2 colon
M19-MEL melanoma = tested on: M19-MEL melanoma
SNB-78 CNS = tested on: SNB-78 CNS
RXF-631 renal = tested on: RXF-631 renal
XF 498 CNS = tested on: XF 498 CNS
MDA-N = tested on: MDA-N
P388 leukemia = tested on: P388 leukemia
P388/ADR leukemia = tested on: P388/ADR leukemia
SN12K1 renal = tested on: SN12K1 renal

Structure (SMILES)	TGI (DMS 114 small cell lung) [µM]	TGI (DMS 273 small cell lung) [µM]	TGI (HOP-18 NSCLC) [µM]	TGI (KM20L2 colon) [µM]	TGI (M19-MEL melanoma) [µM]	TGI (SNB-78 CNS) [µM]	TGI (RXF-631 renal) [µM]	TGI (XF 498 CNS) [µM]	other results
C1CCOC2(CCC3(CC2)OCCCCO3)OC1	> 100	> 100	> 100	> 100	> 100	> 100			
COc1ccc(/C=C2\CCC(CN(C)C)C2=O)cc1OC (stereo not given)	34.3	29.8	35.1	32.3	24.4	66.4	16.3	26.3	
Nc1nc(N)c(N=O)c(OCC2CCCCC2)n1									TGI (MDA-N): 67.4 µM
CN(C)c1ccc(C(=C2C=CC(=[N+](C)C)C=C2)c2ccc(N(C)C)cc2)cc1		1.15		0.938	1.41	5.67		0.193	
C=C1CCC2[C@@H](CCC3[C@]2(C)CCC[C@]3(C)C(=O)OC)C1CCO (stereo not given in full)	20.3	24.9	29.9	22.8	29.9	36.3		22.6	
C=C1CCc2occ(C)c2C2C1C1=C(CC(C)C1=O)C1OC12C (stereo not given)	> 100		6.77	> 100	> 100	> 100		> 100	
C=CCNC(=O)NCCCC(NC(C)=O)C(=O)NCc1ccccc1 (stereo not given)		> 100	> 100	> 100	> 100		> 100	> 100	
OCC1OC(n2cnc3c(=S)nc[nH]c32)C(O)C1O (stereo not given)	2490	> 2310	> 2500	> 2500	> 2500	> 2500		> 1400	TGI (MDA-N): > 2500 µM; TGI (P388 leukemia): > 2500 µM; TGI (P388/ADR leukemia): > 2500 µM; TGI (SN12K1 renal): > 2500 µM
CC12CC(OC(=O)[C@]1(C)O)[C@@H]([C@]1(O)CC[C@H]3[C@@H]4C[C@H]5O[C@]56[C@@H](O)C=CC(=O)[C@]6(C)[C@H]4CC[C@@]31C)C2 (stereo not given in full)									TGI (MDA-N): 26.9 µM
CCCC(Sc1ccccc1)P(=O)(c1ccccc1)c1ccccc1 (stereo not given)	> 100	> 100		> 100	> 100	> 100	94.7		
N.N.NCCCCCCN.O=C([O-])CC(=O)[O-].O=C([O-])CC(=O)[O-].[Pt+4].[Pt+4]		> 100	> 100	> 100		> 100			GI50 (DMS 273 small cell lung): 40.8 µM; GI50 (HOP-18 NSCLC): > 100 µM; GI50 (KM20L2 colon): > 100 µM; GI50 (SNB-78 CNS): > 100 µM
c1ccc(P(CCP(CCP(c2ccccc2)c2ccccc2)c2ccccc2)CCP(c2ccccc2)c2ccccc2)cc1 (stereo not given)									GI50 (MDA-N): > 10 µM and 3.35 µM; TGI (MDA-N): > 10 µM
C=CC1C(OC2OC(CO)C(O)C(O)C2O)OC=C(C(=O)OC)C1CC=O (stereo not given)			> 100	> 100	> 100	> 100	> 100		
CCC1CCc2c(OC)ccc(OCC(=O)O)c2C1=O (stereo not given)	> 100	> 100			> 100	> 100		> 100	
CCN(CC)CC(C(=O)Nc1c(C)cccc1C)/C(C)=N\NC(=O)c1ccncc1 (stereo not given)	> 100	> 100	> 100		> 100	> 100	> 100	> 100	
C/C=C/C=C/CCCCCCCCCCCCCC1(OC)C=CC(CC(=O)OC)OO1 (stereo not given)		3.03		3.51	24.1		29.1	15.8	GI50 (KM20L2 colon): 1.89 µM; GI50 (RXF-631 renal): 10.8 µM; GI50 (XF 498 CNS): 6.59 µM
O=C1CCC2(c3ccccc3)Nc3ncccc3N12 (stereo not given)	> 100			> 100	> 100	> 100		> 100	
COC(=O)c1cc(-c2cccn2C)c2c(c1C(=O)OC)c1ccccc1n2C	> 100	> 100	> 100			> 100	> 100	> 100	

Structure (SMILES)	TGI (DMS 114 small cell lung) [µM]	TGI (DMS 273 small cell lung) [µM]	TGI (HOP-18 NSCLC) [µM]	TGI (KM20L2 colon) [µM]	TGI (M19-MEL melanoma) [µM]	TGI (SNB-78 CNS) [µM]	TGI (RXF-631 renal) [µM]	TGI (XF 498 CNS) [µM]	other results
CCC(/C=C/c1ccccc1)=N\Nc1ccc(Cl)c(Cl)c1									TGI (MDA-N): > 100 µM
CC(=O)NC1CC2Oc3ccc(C)cc3C(C)(O2)C1O (stereo not given)	> 100	> 100	> 100		> 100			> 100	
CC1CCC(C(C)C)C(O[C@@H]2OC(=O)C[C@@H]2Sc2ccccc2)C1 (stereo not given in full)	46.9	36.7			62.1	73.1	69.8		
COc1cc(C)c(O)c(C(=O)O)c1	> 100	> 100	> 100	> 100	> 100	> 100		> 100	
CC(=O)Nc1ccc(/C=C/C(=O)c2sc(-c3nc(C)c(C(=O)/C=C/c4ccc(NC(C)=O)cc4)s3)nc2C)cc1	> 100	> 100		> 100	> 100	> 100	> 100	> 100	
CCOC(=O)c1nc(-c2ccccc2)oc1OCC	> 100	> 100	> 100	> 100	> 100	> 100		> 100	
CCOC(=O)C1=C(Nc2cccc3ccccc23)OC/C1=N\NC(=O)c1ccccc1O	31.6	> 61.1	83.7	90.8	> 100		> 100	30.7	
O=C(Nc1nc(=S)c2c(ncn2CCO)[nH]1)c1ccccc1	> 100	> 100	> 100	> 100	> 100	> 100		> 100	
COC(=O)C1=C(C(=O)OC)SC(=C(N=Nc2ccccc2)c2ccccc2)S1		> 100	> 100	> 100	> 100	> 100	> 100		
O=C(CCc1cc(-c2ccccc2)nc(=S)[nH]1)Nc1ccccc1[N+](=O)[O-]	> 100	> 100	> 100	> 100	> 100	> 100	> 100	91.5	
C=CCC(OCCOCC)c1cc(OCCOCC)ccc1OC (stereo not given)		> 100			> 100	> 100		> 100	
COC(=O)C1=C(O)c2cc3c(cc2[C@H](c2cc(OC)c(OC)c(OC)c2)C1C(=O)OC)OCO3 (stereo not given in full)	68.8	> 100	89.4	> 100	> 100	> 100	> 100	70	
CS/C(C)=N/OC(=O)NCCCCNc1ccc(N=[N+]=[N-])cc1	43.2		> 100	> 100	> 100	> 100	31.4	52	
CSC1(SC2=NCCN2)SC2(NCCN2)S1									TGI (MDA-N): 49.1 µM
COc1cc(/C=C/C(=O)c2sc(NNC(C)=O)nc2C)ccc1O	> 100	> 100	> 100	> 100		> 100	> 100		
C[C@@H](NC1CCC[C@H]1O)c1ccccc1 (stereo not given in full)	> 100	> 100	> 100	> 100	> 100	> 100		> 100	
c1ccc(CSc2nnc3c4ccccc4c4ccccc4c3n2)cc1									TGI (MDA-N): > 100 µM
O=C1NC2C=CN(Cc3ccccc3)C=C2C(=O)N2CCCC12 (stereo not given)	> 100	> 100	> 100	> 100	> 100	> 100	> 100	> 100	
